Measurements taken from article PMC11945486, “TAS1R2/TAS1R3 Single-Nucleotide Polymorphisms Affect Sweet Taste Receptor Activation by Sweeteners: The SWEET Project” (Nutrients, 2025).
No end group written: not given here.

B1: thaumatin (protein)
chain: ATFEIVNRCSYTVWAAASKGDAALDAGGRQLNSGESWTINVEPGTKGGKIWARTDCYFDDSGSGICKTGDCGGLLRCKRFGRPPTTLAEFSLNQYGKDYIDISNIKGFNVPMDFSPTTRGCRGVRCAADIVGQCPAKLKAPGGGCNDACTVFQTSEYCCTTGKCGPTEYSRFFKRLCPDAFSYVLDKPTTVTCPGSSNYRVTFCPTA
modifications: Eight disulfides
notes: sweet-tasting plant protein, E957

Target: T1, human TAS1R2-I234V/TAS1R3-WT (Homo sapiens, UniProt Q7RTX0+Q8TE23, I234V)
T1 construct: expressed in transfected cells; host or cells: HEK293T-Gα16gust44
T1 sequence (Q8TE23 20-839 I234V): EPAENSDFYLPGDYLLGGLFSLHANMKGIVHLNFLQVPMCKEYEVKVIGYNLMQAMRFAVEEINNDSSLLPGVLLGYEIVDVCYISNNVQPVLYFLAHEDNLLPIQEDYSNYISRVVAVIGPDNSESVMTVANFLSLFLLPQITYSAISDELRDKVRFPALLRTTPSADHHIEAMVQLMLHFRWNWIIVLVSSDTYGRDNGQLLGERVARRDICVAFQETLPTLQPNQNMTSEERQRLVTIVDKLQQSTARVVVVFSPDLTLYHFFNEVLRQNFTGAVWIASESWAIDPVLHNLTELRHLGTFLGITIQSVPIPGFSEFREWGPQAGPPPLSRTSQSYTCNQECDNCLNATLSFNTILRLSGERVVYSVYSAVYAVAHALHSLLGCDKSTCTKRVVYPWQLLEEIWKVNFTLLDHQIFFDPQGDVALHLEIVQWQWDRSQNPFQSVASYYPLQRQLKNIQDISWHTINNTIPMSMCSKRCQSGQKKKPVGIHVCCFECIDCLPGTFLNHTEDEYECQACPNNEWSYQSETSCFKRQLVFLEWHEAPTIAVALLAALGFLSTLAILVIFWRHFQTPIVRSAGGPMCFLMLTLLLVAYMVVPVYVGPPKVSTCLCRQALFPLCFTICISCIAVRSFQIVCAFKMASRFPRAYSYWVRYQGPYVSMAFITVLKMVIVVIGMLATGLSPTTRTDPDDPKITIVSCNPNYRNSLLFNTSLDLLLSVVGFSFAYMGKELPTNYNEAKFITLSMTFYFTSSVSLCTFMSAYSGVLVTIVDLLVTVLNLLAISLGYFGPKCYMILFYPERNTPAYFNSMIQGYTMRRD
T1 sequence (Q7RTX0 21-852): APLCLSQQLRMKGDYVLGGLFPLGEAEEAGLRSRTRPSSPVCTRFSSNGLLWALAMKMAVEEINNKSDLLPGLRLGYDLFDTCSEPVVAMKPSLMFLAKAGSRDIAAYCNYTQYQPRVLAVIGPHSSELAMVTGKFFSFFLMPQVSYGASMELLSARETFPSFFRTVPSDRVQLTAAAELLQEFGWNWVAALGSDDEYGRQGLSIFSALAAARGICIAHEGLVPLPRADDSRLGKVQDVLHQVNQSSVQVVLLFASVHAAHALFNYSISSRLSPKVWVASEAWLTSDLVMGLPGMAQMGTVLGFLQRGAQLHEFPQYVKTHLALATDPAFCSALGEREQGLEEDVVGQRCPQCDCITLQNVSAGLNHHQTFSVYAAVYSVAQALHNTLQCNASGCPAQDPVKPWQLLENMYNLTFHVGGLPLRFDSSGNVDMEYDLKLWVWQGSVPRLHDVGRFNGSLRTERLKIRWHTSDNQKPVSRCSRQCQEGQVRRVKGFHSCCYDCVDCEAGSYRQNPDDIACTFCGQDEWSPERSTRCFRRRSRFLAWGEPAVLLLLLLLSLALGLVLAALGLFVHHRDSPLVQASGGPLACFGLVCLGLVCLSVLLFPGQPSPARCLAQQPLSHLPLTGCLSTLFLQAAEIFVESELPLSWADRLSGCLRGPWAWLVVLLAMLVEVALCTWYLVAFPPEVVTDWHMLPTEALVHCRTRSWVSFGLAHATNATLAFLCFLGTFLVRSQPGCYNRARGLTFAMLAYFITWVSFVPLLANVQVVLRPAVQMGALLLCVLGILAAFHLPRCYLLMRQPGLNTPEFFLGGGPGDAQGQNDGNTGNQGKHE
Experiment: Calcium mobilisation assay, TAS1R2 variant I234V with TAS1R3-WT
Format: cell-based
Conditions: for Max ΔF/F0: maximal signal amplitude
Description: The coding sequences for TAS1R2 and TAS1R3 were commercially synthesised, and the human codon was optimised for expression in human cells. The coding sequences of human TAS1R2 and TAS1R3 were subcloned and inserted into the mammalian expression vectors pcDNA6/myc-HisA and pcDNA4/myc-HisA (Invitrogen; Thermo Fisher Scientific; Illkirch, France) between the EcoRI and NotI restriction sites, generating the plasmids pcDNA6-TAS1R2 and pcDNA4-TAS1R3, respectively. To increase protein expression in mammalian cells, an upstream start codon was used, which was a sequence called MAX, corresponding to the QBI SP163 element also described in pcDNA4-HisMax (Invitrogen; Thermo Fisher Scientific; Illkirch, France). To measure the expression level of the receptor by immunohistochemistry, we used the FLAG sequence ([…]) in the C-terminal position, which encodes the FLAG tag epitope. SNP variants of TAS1R2 and TAS1R3 were constructed based on […], respectively, using site-directed mutagenesis (Genewiz; Leipzig, Germany).
The HEK293T cells were kindly provided by Jay P. Slack (Givaudan Flavors Corporation; Cincinnati, OH, USA). HEK293T cells stably transfected with Gα16gust44 [43, 67] were seeded in poly-D-lysine-coated clear-bottom black 96-well plates (0.35 × 10^5 cells/well) in high-glucose DMEM supplemented with 2 mM GlutaMAX, 10% dialysed foetal bovine serum with penicillin/streptomycin and G418 (400 μg/mL) at 37 °C and 6.3% CO2 in a humidified atmosphere as previously reported. […] As a negative control, HEK293T cells were mock-transfected with the empty expression vector. After a further 24 h of incubation, the HEK293T cells were washed with C1 buffer (130 mM NaCl, 5 mM KCl, 10 mM HEPES pH 7.4 and 2 mM CaCl2). The 96-well plates containing the cells were then stimulated with sweet-tasting compounds. […] Different concentration ranges were tested depending on the sweet compound injected. The Ca^2+ changes were expressed as fractional changes in fluorescent light intensity: ΔF/F = (F − F0)/F0, where F was the fluorescent light intensity at each point, and F0 was the value of emitted fluorescent light prior to stimulus application. To calculate dose–response relationships, the changes in fluorescence upon stimulus application were averaged, mock-subtracted and baseline-corrected. The dose–response data obtained were adjusted using a 4-parameter logistic equation. The half-maximal effective concentrations (EC50 values) and maximal signal amplitudes were calculated using SigmaPlot software (version 15.0) (Systat Software; San Jose, CA, USA).
For in vitro calcium mobilisation assay performed on hTAS1R2-SNPs, hTAS1R3-SNPs and mTAS1R3-I60T, 6 to 7 concentrations were tested for each sweet compound, plus buffer alone. All concentration–receptor combinations were measured in duplicate, and each experiment was repeated at least 4 times (8 wells/concentration). Results were expressed for each concentration as ΔF/F mean ± SEM and represented as dose–response curves.

Molecule | EC50 [µM] | R1 = Variant EC50/WT EC50 | Max ΔF/F0
OC[C@H]1O[C@H](O[C@]2(CCl)O[C@H](CCl)[C@@H](O)[C@@H]2O)[C@H](O)[C@@H](O)[C@H]1Cl [Sucralose] | 60 ± 7 | 0.7 | 0.75 ± 0.03
O=S(=O)(O)NC1CCCCC1 [Cyclamate, cyclamate] | 2250 ± 42 | – | –
C=C(C)[C@@H]1CC=C(/C=N/O)CC1 [Perillartine, perillartine] | 20.1 ± 1.1 | 1.1 | 1.52 ± 0.03
C=C1C[C@@]23CC[C@H]4[C@@](C)(CCC[C@@]4(C)C(=O)O[C@@H]4O[C@H](CO)[C@@H](O)[C@H](O[C@@H]5O[C@H](CO)[C@@H](O)[C@H](O)[C@H]5O)[C@H]4O[C@@H]4O[C@H](CO)[C@@H](O)[C@H](O)[C@H]4O)[C@@H]2CC[C@]1(O[C@@H]1O[C@H](CO)[C@@H](O)[C@H](O[C@@H]2O[C@H](CO)[C@@H](O)[C@H](O)[C@H]2O)[C@H]1O[C@@H]1O[C@H](CO)[C@@H](O)[C@H](O)[C@H]1O)C3 [Rebaudioside M, rebaudioside M] | 18.4 ± 0.6 | 1.1 | 1.14 ± 0.01
COc1ccc(CCC(=O)c2c(O)cc(O[C@@H]3O[C@H](CO)[C@@H](O)[C@H](O)[C@H]3O[C@@H]3O[C@@H](C)[C@H](O)[C@@H](O)[C@H]3O)cc2O)cc1O [NHDC, neohesperidin dihydrochalcone] | 94.7 ± 6.8 | 1.2 | 0.80 ± 0.02
thaumatin | – | 1.8 | 1.25 ± 0.01
CC1=CC(=O)NS(=O)(=O)O1 [Acesulfame K, acesulfame K] | 510 ± 63 | 0.7 | 0.41 ± 0.02
brazzein (QDKCKKVYENYPVSKCQLANQCNYDCKLDKHARSGECFYDEKRNLQCICDYCEY; ends and bridges not checked; cysteine pairing not given here; UniProt P56552 1-54, looked up) [sweet-tasting protein obtained by recombinant production using the yeast Pichia pastoris] | – | 1.1 | 1.34 ± 0.05
C[C@H](CC[C@@H](O[C@@H]1O[C@H](CO[C@@H]2O[C@H](CO)[C@@H](O)[C@H](O)[C@H]2O)[C@@H](O)[C@H](O)[C@H]1O[C@@H]1O[C@H](CO)[C@@H](O)[C@H](O)[C@H]1O)C(C)(C)O)[C@H]1CC[C@@]2(C)[C@@H]3CC=C4[C@@H](CC[C@H](O[C@@H]5O[C@H](CO[C@@H]6O[C@H](CO)[C@@H](O)[C@H](O)[C@H]6O)[C@@H](O)[C@H](O)[C@H]5O)C4(C)C)[C@]3(C)[C@H](O)C[C@]12C [Mogroside V, mogroside V] | 19.4 ± 1.6 | 1.1 | 1.28 ± 0.04
COC(=O)[C@H](Cc1ccccc1)NC(=O)[C@H](CC(=O)O)NCCC(C)(C)C [Neotame] | 0.8 ± 0.08 | 1.0 | 0.66 ± 0.02
B1 | 13.8 ± 0.2 | – | –
